Test results taken from paper PMC5017001, “Induction of apoptosis and G2/M arrest by ampelopsin E from Dryobalanops towards triple negative breast cancer cells, MDA-MB-231” (BMC Complementary and Alternative Medicine, 2016).
Like-named read-outs stand apart in the source and are kept apart here.

Assays:
MDA-MB-231 cells [1] = test: MTT cytotoxicity assay, MDA-MB-231; assay type: cell-based, human; conditions: for IC50: MTT
Description: The cytotoxic effects of the compounds were evaluated by the MTT [3-(4,5-dimethylthiazol-2-yl)-2,5-diphenyltetrazolium bromide] assay. […] Untreated controls were also included. Following incubation, 20 μL of 5 mg/mL MTT solution was added to each well and incubated at 37 °C for 3 h. Next, 100 μL of DMSO was added to dissolve the purple precipitate of formazan crystal. The absorbance at 570 nm and 630 nm as reference wavelength was measured by a microplate reader (BioTek EL 800, United States).
(§1) Cell growth inhibition (%) = [1 - (ODTreated/OD Control)] × 100.

MCF-7 cells [2] = test: MTT cytotoxicity assay, MCF-7; assay type: cell-based, human
Description: (§2) The cytotoxic effects of the compounds were evaluated by the MTT [3-(4,5-dimethylthiazol-2-yl)-2,5-diphenyltetrazolium bromide] assay. The cells (50,000 cells/mL) were treated with various concentrations of the compounds (0.94–30 μM) in a 96-well plate for 72 h. Untreated controls were also included. Following incubation, 20 μL of 5 mg/mL MTT solution was added to each well and incubated at 37 °C for 3 h. Next, 100 μL of DMSO was added to dissolve the purple precipitate of formazan crystal. The absorbance at 570 nm and 630 nm as reference wavelength was measured by a microplate reader (BioTek EL 800, United States).
as §1

HT-29 cells = test: MTT cytotoxicity assay, HT-29; assay type: cell-based, human; conditions: HT-29, 72 h
Description: as §2, §1

A-549 cells = test: MTT cytotoxicity assay, A-549; assay type: cell-based, human; conditions: A-549, 72 h
Description: as §2, §1

HeLa cells = test: MTT cytotoxicity assay, HeLa; assay type: cell-based, human; conditions: 72 h
Description: as §2, §1

[3] = tested on: mouse embryonic fibroblast NIH/3 T3 cells; test: MTT cytotoxicity assay, NIH/3T3; assay type: cell-based; conditions: 3T3, 72 h
Description: as §2, §1

[4] = tested on: MCF-10A normal breast epithelial cells; test: MTT cytotoxicity assay, MCF10A; assay type: cell-based, human; conditions: 72 h
Description: as §2, §1

MDA-MB-231 cells [5] = test: Morphological changes under inverted light microscope; assay type: cell-based, human
Description: Briefly, 150,000 cells per well of MDA-MB-231 cells were seeded in a 6-well plate and incubated for 24 h. Next, the cells were treated with ampelopsin E (7.5–30 μM) and further incubated for 72 h. The untreated cells were included as a control. The image was captured at 0, 24, 48 and 72 h at the same spot under an inverted microscope (Olympus, Japan).

MDA-MB-231 cells [6] = test: Cell cycle analysis by flow cytometer; assay type: cell-based, human; conditions: 15 and 30 μM; 24, 48 and 72 h; p < 0.05
Description: MDA-MB-231 cells were seeded at 800,000 cells per 75 cm^2 flask. Next, the cells were treated with ampelopsin E (7.5–30 μM). The untreated cells were also included as a control. The cells were incubated for 24, 48 and 72 h. Next, the cells were trypsinized, washed twice with ice cold PBS and collected. The cell pellet was fixed with ice-cold 70 % ethanol and stored at −20 °C. After a week, the cells were washed once again with ice-cold PBS. The cell pellet was mixed up with 250 μL Guava cell cycle reagents (EMD, Milliport Corporation, Hayward) and 300 μL PBS. The population of cells in each phase was measured by a flow cytometer (FACSCalibur, Becton Dickinson, USA). The results were analysed by using ModFit LT™ software.

MDA-MB-231 cells [7] = test: Annexin V/PI flow cytometric analysis of mode of cell death; assay type: cell-based, human; conditions: for percentage of viable cells, lower left quadrant (Annexin-V-/PI-): 24 h; for percentage of early apoptotic cells, lower right quadrant (Annexin-V+/PI-): 72 h
Description: Human Annexin V/PI Apoptosis Detection Kit I (BD Biosciences Pharmingen, Franklin Lakes, NJ, USA) was used to determine the mode of cell death induced by ampelopsin E. Briefly, the MDA-MB-231 cells were seeded at 150,000 cells per well in a 6-well plate. Next, the cells were treated with ampelopsin E (7.5–30 μM). The untreated cells were also included as a control. The cells were harvested and washed with 2 mL of ice-cold PBS. Subsequently, the samples were mixed with 100 μL of […] binding buffer on ice. Next, in the dark, 5 μL annexin V and 5 μL of propidium iodide (1 mg/mL) were added with 15 min of incubation on ice. Next, 400 μL of […] binding buffer was added to dilute the samples. The cells were analyzed by using FACS Calibur flow cytometer (Becton Dickinson, USA). The results were analysed by using FlowJo version 8.6 (Treestar Inc., San Carlos, CA).

MCF-7 cells [8] = tested on: MCF-7 cells; design: method as in Wibowo et al. [34]; conditions: MCF-7, ampelopsin E from Dryobalanops beccarii; ref Wibowo et al. [34]; cited from earlier work

Row | Molecule | IC50 (MDA-MB-231 cells [1]; MDA-MB-231, 72 h) [µM] | IC50 (MCF-7 cells [2]; MCF-7, 72 h) [µM] | IC50 (HT-29 cells) [µM] | IC50 (A-549 cells) [µM] | IC50 (HeLa cells) [µM] | IC50 [3] [µM] | IC50 [4] [µM] | further results
1 | O=C1O[C@@H]2[C@H](O)COC23O[C@@H](c2ccc(O)cc2)[C@H](c2cc(O)cc4c2[C@@H](c2cc(O)cc(O)c2)[C@H](c2ccc(O)cc2)O4)[C@@]13O (stereo partly drawn) [Laevifonol, laevifonol] | > 30 | > 30 | > 30 | > 30 | > 30 | > 30 |  | 
2 | ampelopsin E | 14.5 ± 0.71 | 29.5 ± 0.71 | > 30 | > 30 | > 30 | > 30 | > 30 | cell viability (MDA-MB-231 cells [1]; 15–30 μM, p < 0.05): significant reduction; IC50 (MDA-MB-231 cells [1]; MDA-MB-231, 24 h): 30 ± 0.13 µM; IC50 (MDA-MB-231 cells [1]; MDA-MB-231, 48 h): 16 ± 2.01 µM; IC50 (MDA-MB-231 cells [1]; MDA-MB-231, 72 h, listed as ampelopsin E): < 15 µM; morphological changes (MDA-MB-231 cells [5]; 7.5 μM): membrane blebbing; morphological changes (MDA-MB-231 cells [5]; 15 μM): cell shrinkage; morphological changes (MDA-MB-231 cells [5]; 30 μM, 48 and 72 h): Cell detachment, cell shrinkage and formation apoptotic bodies; cell cycle arrest (MDA-MB-231 cells [6]): increase in G2/M population; percentage of viable cells, lower left quadrant (Annexin-V-/PI-) (MDA-MB-231 cells [7]; 7.5 μM): 75.3%; percentage of early apoptotic cells, lower right quadrant (Annexin-V+/PI-) (MDA-MB-231 cells [7]; 7.5 μM): 12.9%; percentage of viable cells, lower left quadrant (Annexin-V-/PI-) (MDA-MB-231 cells [7]; 15 μM): 69.0%; percentage of early apoptotic cells, lower right quadrant (Annexin-V+/PI-) (MDA-MB-231 cells [7]; 15 μM): 23.6%; percentage of viable cells, lower left quadrant (Annexin-V-/PI-) (MDA-MB-231 cells [7]; 30 μM): 57.1%; percentage of early apoptotic cells, lower right quadrant (Annexin-V+/PI-) (MDA-MB-231 cells [7]; 30 μM): 33.9%; mode of cell death (MDA-MB-231 cells [7]; 7.5-30 μM): induced apoptosis; IC50 (MCF-7 cells [8]): 21 µM
3 | Oc1ccc(/C=C/c2c3c(cc4c2[C@@H](c2cc(O)cc(O)c2)[C@H](c2ccc(O)cc2)O4)O[C@H](c2ccc(O)cc2)[C@H]3c2cc(O)cc3c2[C@@H](c2cc(O)cc(O)c2)[C@H](c2ccc(O)cc2)O3)cc1 [Flexuosol A, flexuosol A] | 27.5 ± 3.54 | > 30 | > 30 | > 30 | > 30 | > 30 | > 30 | 
4 | Oc1ccc(/C=C\c2c3c(cc4c2[C@@H](c2cc(O)cc(O)c2)[C@@H](c2ccc(O)cc2)O4)O[C@H](c2ccc(O)cc2)[C@@H]3c2cc(O)cc(O)c2)cc1 [Malaysianol D] | > 30 | > 30 |  |  |  |  | > 30 | 
5 | Oc1ccc([C@@H]2c3c(O)cc(O)cc3[C@@H]3c4c(O)cc(O)cc4[C@H]2[C@H]3c2ccc(O)cc2)cc1 [Ampelopsin F, ampelopsin F] | > 30 | > 30 | > 30 | > 30 | > 30 | > 30 |  | 
6 | COc1cccc2c1C(=O)c1c(O)c3c(c(O)c1C2=O)C[C@@](O)(C(=O)CO)C[C@@H]3O[C@H]1C[C@H](N)[C@H](O)[C@H](C)O1 [Doxorubicin, reference compound] |  |  |  |  |  |  |  | IC50 (MDA-MB-231 cells [1]; Homo sapiens, MDA-MB-231, 72 h): 0.4 µM; IC50 (MCF-7 cells [2]; Homo sapiens, MCF7, MCF-7, 72 h): 0.21 ± 0.27 µM; IC50 ([4]; Homo sapiens, MCF-10A): > 10 µM
7 | Malaysianol A | 23 ± 4.24 | > 30 |  |  |  |  | > 30 | 
8 | nepalensinol E | > 30 | > 30 | > 30 | > 30 | > 30 | > 30 |  | 
